Data: patent US10005733B2, “N-(4-hydroxy-4-methyl-cyclohexyl)-4-phenyl-benzenesulfonamide and N-(4-hydroxy-4-methyl-cyclohexyl)-4-(2-pyridyl)-benzenesulfonamide compounds and their therapeutic use” (PIMCO 2664 LIMITED, priority 2014, dated 2018)
pIC50: −log10 of the molar value.

Tests used:
[1] = tested on: DoHH2 B-cell lymphoma cells; assay: DoHH2 B Cell Lymphoma Proliferation Assay; format: cell-based; settings: Homo sapiens, DOHH-2; 72 hour incubation, flow cytometry with counting beads and eFluor 450
Procedure: In vitro potency of test compounds was determined by incubation with DoHH2 B-cell lymphoma cells and subsequent determination of cell number using flow cytometry.
Flow cytometry is a laser-based, biophysical technology employed in cell counting, cell sorting, and biomarker detection, by suspending cells in a stream of fluid and passing them by an electronic detection apparatus. It allows simultaneous multi-parametric analysis of the physical and chemical characteristics of up to thousands of particles per second. To quantify cell numbers, counting beads are used as an internal standard. Counting beads are a calibrated suspension of microbeads which are added to a known volume of sample so the sample volume per bead is known. This allows the absolute determination of cell number in a sample. Cell proliferation is measured using a dye known as Cell Proliferation Dye (eFluor® 450). eFluor® 450 is an organic dye which can be conjugated to cell-specific markers. […]
The average results for each test compound were expressed as a percent (%) of the average control value reflecting cell viability. The average values across the concentrations tested were then plotted and an IC50 was calculated by fitting the data to a 4-parameter IC50 equation using KaleidaGraph software (Synergy Software, Reading, Pa. USA).

[2] = tested on: human primary osteoclasts; assay: Human Primary Osteoclastogenesis (TRAP-positive multinucleated cells from CD14+ monocytes); format: cell-based; settings: compound added on Day 4 of monocyte differentiation; for pIC50: Homo sapiens, Osteoclast, 96 h
Procedure: In vitro potency of test compounds was determined by incubating them with human primary monocytes and assessing effects on the formation of mature osteoclasts.
The activity of the compounds in reducing the formation of human primary osteoclasts (osteoclastogenesis) was tested using monocytes derived from human whole blood. Monocytes, which are positive for the cell surface marker CD14, are part of the innate immune system found in the circulation. Peripheral blood monocytes differentiate to form several cell types, including osteoclasts. Human primary osteoclasts were […] macrophage colony-stimulating factor (M-CSF) and RANKL+10% foetal calf serum for approximately 6 days, with the exact duration depending on the individual donor of the cells.
When monocytes are cultured under the conditions described above, they form large, multinucleated cells (osteoclasts), which stain positively for tartrate-resistant acid phosphatase (TRAP). TRAP staining was performed between Days 5-6 of culture depending on the individual donor. Osteoclasts are identified as cells which stain positive for TRAP and contain more than 3 nuclei. Compounds which reduce the number of TRAP-positive cells reduce the formation of osteoclasts. The bisphosphonate compound, alendronate, which is used in the treatment of osteoporosis, is used as a positive control for reducing osteoclastogenesis in this assay.
Effects on osteoclast formation were assessed by staining for TRAP and counting cells containing more than three nuclei in each well under a microscope. This allows the absolute determination of cell number in each treated well.
PBMCs (peripheral blood mononuclear cells) were collected from healthy donors and isolated by centrifugation on a layer of Ficoll Paque (GE Healthcare, UK). Monocytes were then sorted from the PBMCs using an autoMACS Pro Separator (MiltenyiBiotec), which sorts cells depending on the markers present on their cell surface. The resulting CD14+ monocytes were resuspended in αMEM supplemented with 10% FCS, 25 ng/mL M-CSF and 100 ng/ml RANKL and added to a 48-well plate, which was then incubated for up to 6 days at 37° C./5% CO2. […] The medium was replenished every 2 days.
At the end of the culture period, the medium was removed from the cells and the cells were fixed at room temperature and then washed with phosphate-buffered saline. TRAP staining solution was then added and the cells incubated at 37° C. until a red colour had developed, after which the reaction was stopped by rinsing with water. The stained cells were air-dried and then photographed using a conventional microscope and the TRAP-positive multinucleated osteoclasts counted by two independent observers.
The average results (n=6) for each concentration of test compound were averaged between the two observers and then expressed as a fold change versus the average control value. The data were then plotted graphically using software from Grafit (Erithacus Software).

Compound	pIC50 [1]	% reduction at 1 μM [2] [%]	pIC50 [2]
C[C@]1(O)CC[C@@H](NS(=O)(=O)c2ccc(-c3ccc(F)cc3F)cc2)CC1 [ABD899, reference compound]	6.87	–	–
C[C@]1(O)CC[C@H](NS(=O)(=O)c2ccc(-c3ccc(F)cc3F)cc2)CC1 [ABD900]	–	90	6.43
C[C@]1(O)CC[C@@H](NS(=O)(=O)c2ccc(-c3ccc(C#N)cc3)c(F)c2)CC1 [HMC-C-07-B, 4′-Cyano-2-fluoro-N-((1s,4s)-4-hydroxy-4-methylcyclohexyl)-[1,1′-biphenyl]-4-sulfonamide]	6.73	90	6.92
